From patent publication US20140011769A1, “Methods of Treating Retroviral Infections and Related Dosage Regimes” (Chimerix, Inc., priority 2012, published 2014)
Entries after “also recorded” stand apart in the source; their conditions may differ. Where two headings read alike, the source gives them in different places.

Tested on: HTLV-I
Experiment: Co-culture assay for HTLV-I, virus replication by p19 Gag ELISA
Format: cell-based
Conditions: for suppression of virus replication greater than 50% (p19 ELISA): 2 and 4 weeks co-culture; for concentration inhibiting HTLV-I virus replication from infected PBMCs: 3 weeks post-infection; for EC50: read-out: HTLV-I EC50; for concentration inhibiting HTLV-I replication as measured by p19 ELISA: 2 weeks; for antiviral activity: 2 weeks post infection, up to 25 μM
Protocol: PBMC Preparation: Fresh human peripheral blood mononuclear cells (PBMCs), obtained from Biological Specialty Corporation, Bristol, Pa., were confirmed as seronegative for HIV and HBV. Depending on the volume of the donor blood received, the leukophoresed blood cells were washed several times with PBS. After washing, the leukophoresed blood was diluted 1:1 with Dulbecco's phosphate buffered saline (PBS) and layered over 15 mL of Ficoll-Hypaque density gradient in a 50 mL conical centrifuge tube. These tubes were then centrifuged for 30 min at 600 g. Banded PBMCs were gently aspirated from the resulting interface and subsequently washed three times with PBS by low speed centrifugation. After the final wash, cells were enumerated by trypan blue dye exclusion and re-suspended at 1×10^6 cells/mL in RPMI 1640 with 15% Fetal Bovine Serum (FBS), 2 mmol/L L-glutamine, 2 μg/mL phytohemagglutinin (PHA-P), 100 Units/mL penicillin and 100 μg/mL streptomycin and allowed to incubate for 48-72 hr at 37° C.
After incubation, PBMCs were centrifuged and resuspended in PBMC medium (RPMI 1640 with 15% FBS, 2 mmol/L L-glutamine, 100 U/mL penicillin, 100 μg/mL streptomycin and 20 U/mL recombinant human IL-2). The cultures were then maintained for the remainder of the experiment by exchange of half the culture volume with fresh IL-2 containing tissue culture medium every 3 days. Assays were initiated with PBMCs that had been induced to proliferate for 72 hr. Stimulated PBMCs from two donors were pooled together to minimize the variability between individual donors and 8×10^6 cells were resuspended in 9 mL of fresh tissue culture medium per T25 flask.
HDP-TFV was evaluated at concentrations of 0.04, 0.2, 1 and 10 μM. AZT and tenofovir were evaluated at concentrations of 0.1, 1, 5 and 25 μM. HDP-TFV, AZT, or tenofovir were added to the PBMCs 10 hours prior to infection.
MT-2 Preparation: MT-2 cells were obtained from the NIH AIDS Research and Reference Reagent Program and passaged in T-75 flasks in RPMI 1640 medium, supplemented with 10% heat inactivated fetal bovine serum, 2 mmol/L L-glutamine, 100 U/ml penicillin and 100 μg/ml streptomycin. Total cell and viability quantification were performed using hemocytometer and trypan blue dye exclusion. The cells were incubated in 10 mL of 200 μg/mL mitomycin C for 1 hour at 37° C./5% CO2, washed 3 times in Dulbecco's phosphate buffered saline (DPBS), and resuspended in PBMC medium at 1.6×10^6 cells per mL. One mL of treated MT-2 cells was added to each T25 flask, except for the PBMC only control.
Co-Culture for HTLV-I Replication: Cell cultures were incubated at 37° C./5% CO2 for four weeks. Cell viability and density was monitored by trypan blue dye exclusion test. Cell density was readjusted to 8×10^5 cells per mL on days 3, 7, 10, 14, 21 and 28. Compound was added with the half-volume fresh medium exchange on days 3, 7, and 10. Supernatant was collected on days 14, 21 and 28 for measurement of HTLV-I virus replication by p19 Gag ELISA. Cell samples were also collected on days 14 and 28 for genomic DNA extraction and PCR analysis of HTLV-I proviral DNA. Untreated PBMCs co-cultured with MT-2 cells, PBMCs alone, and mitomycin C-treated MT-2 cells alone were cultured in parallel as controls.
HTLV-I p19 Gag ELISA: ELISA was performed to quantify p19 in cell-free supernatants according to the manufacturer's instructions (ZeptoMetrix, Buffalo, N.Y.). Briefly, 50 μL of the kit p19 standard was added to 950 μL assay diluent in microtiter tubes and serially diluted 1:2. After washing the microtiter plate with 1× plate wash buffer, 200 μL of the diluted standards were added in duplicate to the coated wells. In duplicate, 200 μL of media was added as negative controls. Cell culture supernatants were diluted 1:9 with media and mixed with 50 μL of lysis buffer in duplicate. Two hundred microliters of diluted sample was added to the coated wells and incubated at 37° C. for 2 hours. […]

[1] = Primate T-lymphotropic virus 1, MT2, 336 h, 2 wks post infection, human PBMCs co-cultured with mitomycin C treated MT-2 cells
[2] = Primate T-lymphotropic virus 1, MT2, 504 h, 3 wks post infection, human PBMCs co-cultured with mitomycin C treated MT-2 cells
[3] = Primate T-lymphotropic virus 1, MT2, 672 h, 4 wks post infection, human PBMCs co-cultured with mitomycin C treated MT-2 cells

Row | Structure (SMILES) | suppression of virus replication greater than 50% (p19 ELISA) | concentration inhibiting HTLV-I virus replication from infected PBMCs | EC50 [1] | EC50 [2] | EC50 [3] | concentration inhibiting HTLV-I replication as measured by p19 ELISA | antiviral activity | other results
1 | Nc1ccn(C[C@@H](CO)OCP(=O)(O)O)c(=O)n1 [Cidofovir, (S)-9-(3-hydroxy-2-phosphonylmethoxypropyl)cytosine] | did not suppress | 100 µM | > 100 µM | 87.8 µM | > 100 µM | – | – | suppression of virus replication greater than 50% (p19 ELISA) (listed as cidofovir): not reached
2 | CCCCCCCCCCCCCCCCOCCCOP(=O)(O)CO[C@H](C)Cn1cnc2c(N)ncnc21 [HDP-TFV, 3-(hexadecyloxy)propyl hydrogen ((R)-1-(6-amino-9H-purin 9-yl)propan-2-yloxy)methylphosphonate] | – | – | – | – | – | above 7 μM | – | EC50 (Primate T-lymphotropic virus 1, MT2, 336 h): 6.8 µM; EC50 (Primate T-lymphotropic virus 1, MT2, 504 h): 0.9 µM; EC50 (Primate T-lymphotropic virus 1, MT2, 672 h): 0.2 µM
3 | C[C@H](Cn1cnc2c(N)ncnc21)OCP(=O)(O)O [Tenofovir, (R)-9-(2-phosphonylmethoxypropyl)adenine] | – | – | – | – | – | – | no antiviral activity | EC50 (2 wks post infection, human PBMCs co-cultured with mitomycin C treated MT-2 cells): > 25 µM; EC50 (3 wks post infection, human PBMCs co-cultured with mitomycin C treated MT-2 cells): 10.3 µM; EC50 (4 wks post infection, human PBMCs co-cultured with mitomycin C treated MT-2 cells): 4.5 µM
4 | CCCCCCCCCCCCCCCCOCCCOP(=O)(O)CO[C@H](CO)Cn1ccc(N)nc1=O [HDP-CDV, hexadecyloxypropyl cidofovir] | did not suppress; also recorded: not reached | above 3 μM | > 10 µM | 0.4 µM | > 10 µM | – | – | concentration showing moderate antiviral activity (four weeks of infected PBMC culture, inhibition may be attributed to observed toxicity): ≥ 0.2 µM
5 | Cc1cn([C@H]2C[C@H](N=[N+]=[N-])[C@@H](CO)O2)c(=O)[nH]c1=O [AZT, 3′-azido-2′,3′-dideoxythymidine] | – | – | > 25 µM | 3.2 µM | 2.6 µM | above 3 μM | no antiviral activity | –
